Reference: the supplement of paper PMC5908809

What was measured:
SNK-6 (IL-2 2.5 ng/mL) [1] = test: percent inhibition of viability; higher = more inhibition; details: 72 h
KHYG-1 (IL-2 2.5 ng/mL) [2] = test: as above; details: 72 h
[3] = test system: normal primary NK cells, pool 3 (3 donors) (IL-2 2.5 ng/mL); test: as above; details: 72 h
IMC-1 (IL-2 20 ng/mL) [4] = test: as above; details: 72 h
NK-92 (IL-2 2.5 ng/mL) [5] = test: as above; details: 72 h
[6] = test system: normal primary NK cells, pool 1 (3 donors) (IL-2 2.5 ng/mL); test: as above; details: 72 h
NKL (IL-2 2.5 ng/mL) [7] = test: as above; details: 72 h
[8] = test system: normal primary NK cells, pool 1 (3 donors), resting (IL-2 0 ng/mL); test: as above; details: 72 h
KAI3 (IL-2 2.5 ng/mL) [9] = test: as above; details: 72 h
NK-YS (IL-2 2.5 ng/mL) [10] = test: as above; details: 72 h
DERL-7 (IL-2 2.5 ng/mL) [11] = test: as above; details: 72 h
[12] = test system: normal primary NK cells, pool 2 (3 donors) (IL-2 2.5 ng/mL); test: as above; details: 72 h
YT (IL-2 2.5 ng/mL) [13] = test: as above; details: 72 h
[14] = test system: normal NK cells expanded with K562-aAPC; test: as above; details: 72 h, IL-2 2.5 ng/mL
Procedure: (§1)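 Drug sensitivity and resistance testing on K562-aAPC-expanded normal NK cells: 5 concentrations (10-fold steps over a 10,000-fold range), 72 h at 37 °C, viability by CellTiter-Glo normalised to DMSO and benzethonium chloride controls; DSS from the fitted curve.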

[15] = test system: normal NK cells expanded with K562-aAPC; test: drug sensitivity score (DSS) (DSS units); higher = more sensitive; extreme values may be limits of the assay; details: 72 h; IL-2 2.5 ng/mL
Procedure: as §1

SNK-6 (IL-2 2.5 ng/mL) [16] = test: as above; details: 72 h
KHYG-1 (IL-2 2.5 ng/mL) [17] = test: as above; details: 72 h
[18] = test system: normal primary NK cells, pool 3 (3 donors) (IL-2 2.5 ng/mL); test: as above; details: 72 h
IMC-1 (IL-2 20 ng/mL) [19] = test: as above; details: 72 h
NK-92 (IL-2 2.5 ng/mL) [20] = test: as above; details: 72 h
[21] = test system: normal primary NK cells, pool 1 (3 donors) (IL-2 2.5 ng/mL); test: as above; details: 72 h
NKL (IL-2 2.5 ng/mL) [22] = test: as above; details: 72 h
[23] = test system: normal primary NK cells, pool 1 (3 donors), resting (IL-2 0 ng/mL); test: as above; details: 72 h
KAI3 (IL-2 2.5 ng/mL) [24] = test: as above; details: 72 h
NK-YS (IL-2 2.5 ng/mL) [25] = test: as above; details: 72 h
DERL-7 (IL-2 2.5 ng/mL) [26] = test: as above; details: 72 h
[27] = test system: normal primary NK cells, pool 2 (3 donors) (IL-2 2.5 ng/mL); test: as above; details: 72 h
YT (IL-2 2.5 ng/mL) [28] = test: as above; details: 72 h

Cc1cc(C(C)Nc2ccccc2)c2nc(N3CCOCC3)cc(=O)n2c1 (centres undefined) [TGX-221] (max concentration tested 10000 nM)
percent inhibition of viability [%]
Details | 1 nM | 10 nM | 100 nM | 1000 nM | 10000 nM
DERL-7 (IL-2 2.5 ng/mL) [11] | 0.96 | -2.74 | -1.99 | 1.82 | 27.4
IMC-1 (IL-2 20 ng/mL) [4] | -6.36 | -5.05 | -4.93 | -4.5 | -0.86
KAI3 (IL-2 2.5 ng/mL) [9] | -3.13 | -6.25 | -6.02 | 4.84 | 23.6
KHYG-1 (IL-2 2.5 ng/mL) [2] | 2.88 | 11.7 | 4.06 | 7.54 | 14.4
NK-92 (IL-2 2.5 ng/mL) [5] | 2.02 | 4.62 | 5.66 | 32.2 | 31.8
NK-YS (IL-2 2.5 ng/mL) [10] | -2.78 | -1.69 | -1.28 | 2.25 | 27.1
NKL (IL-2 2.5 ng/mL) [7] | 2.96 | 0.41 | 10.3 | 15.5 | 28
SNK-6 (IL-2 2.5 ng/mL) [1] | 31 | 21.5 | 15.7 | 15.3 | -7.08
YT (IL-2 2.5 ng/mL) [13] | -1.99 | 2.32 | 1.97 | 11.6 | 28.1
[3] | -7.93 | -8.91 | -2.84 | 3.04 | 11.7
[6] | -13.5 | -0.76 | -6.33 | 4.04 | 29.7
[8] | -4.4 | 0.78 | -11.3 | 14.5 | 51.2
[12] | -16.6 | -10.3 | -4.51 | 4.63 | 29.4
[14] | -0.66 | 0.04 | 5.39 | 4.41 | 32.4

Details | drug sensitivity score
DERL-7 (IL-2 2.5 ng/mL) [26] | 1.37
IMC-1 (IL-2 20 ng/mL) [19] | 0
KAI3 (IL-2 2.5 ng/mL) [24] | 1.55
KHYG-1 (IL-2 2.5 ng/mL) [17] | 0
NK-92 (IL-2 2.5 ng/mL) [20] | 6.45
NK-YS (IL-2 2.5 ng/mL) [25] | 1.43
NKL (IL-2 2.5 ng/mL) [22] | 2.96
SNK-6 (IL-2 2.5 ng/mL) [16] | 0
YT (IL-2 2.5 ng/mL) [28] | 2.28
[15] | 2.2
[18] | 0.14
[21] | 1.93
[23] | 4.9
[27] | 2
